The experiment concerns the target Beta-lactamase (reporter enzyme, TEM-1 type bla) (UniProt Q932Y6). Put plainly: BLA reporter interference, concentration series – BLA reporter cells, FRET fluorescence, artefact control for TLR9-MyD88 binding inhibitor project, dose response (AID 588341). Particulars: BLA reporter cell line, FRET fluorescence inhibition.

Active and inactive are the calls of the source. How the calls were made is not given here.

Beta-lactamase (reporter enzyme, TEM-1 type bla), sequence (Q932Y6 1-286): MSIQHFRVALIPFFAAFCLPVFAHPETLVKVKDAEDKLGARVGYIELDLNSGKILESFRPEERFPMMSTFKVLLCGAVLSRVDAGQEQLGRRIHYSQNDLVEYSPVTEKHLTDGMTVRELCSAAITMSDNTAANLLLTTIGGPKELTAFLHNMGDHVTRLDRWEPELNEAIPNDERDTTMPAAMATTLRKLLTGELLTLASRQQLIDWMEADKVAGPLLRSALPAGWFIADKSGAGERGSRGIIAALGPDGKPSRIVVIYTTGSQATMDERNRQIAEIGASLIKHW

With `COc1cc(/C=C/C(=O)/C=C(O)/C=C/c2ccc(O)c(OC)c2)ccc1O`, the IC50 entry is “inactive”.

The values above are taken from PubChem BioAssay AID588341 (The Scripps Research Institute Molecular Screening Center, 2011).
